We go through two molecules from US20050032124A1, “Identification of genotype-selective agents for treating Huntington's disease” (priority 2003, published 2005).

Holding throughout (format): cell-based, human
In assay [1] the test system is BJ-TERT/LT/ST/RAS^V12 cells. The assay can be described thus: Block of compound-induced cell death by pan-caspase inhibitor. As to conditions: 50 μM Boc-Asp(Ome)-fluoromethyl ketone.
For assay [2], the system named is BJ-TERT/LT/ST/RAS^V12 cells. The assay can be described thus: Annexin V-FITC apoptosis assay. As to conditions: untreated 6%. How it is done: BJ-TERT/LT/ST/RAS^V12 cells were seeded at 1×10^6 cells per dish in 100 mm dishes and allowed to grow overnight. Cells were treated with erastin (5 or 10 μg/ml) for 6, 8 or 11 h. A camptothecin-treated (0.4 μg/ml) control was maintained, treated at the time of seeding for 20 hours. After the treatment, cells were harvested with trypsin/EDTA and washed once with fresh medium containing serum and then twice with phosphate buffered saline. Cells were resuspended in 1× binding buffer (BD Pharmingen) at a concentration of 1×10^6 cells/mi. 100 μl (1×10^5 cells) was incubated with 5 μl of Annexin V- FITC (BD Pharmingen) and propidium iodiode (BD Pharmingen) for 15 minutes in the dark at room temperature. Then 400 μl of the 1× binding buffer was added and the cells analyzed by flow cytometry (Becton-Dickinson). Data were acquired and analyzed using Cellquest software.

Assay [3] concerns BJ-TERT/LT/ST/RAS^V12 cells. The experiment in a line: DNA fragmentation (DNA ladder).
The subject of assay [4] is active, cleaved form of caspase 3. The assay can be described thus: Western blot for active caspase-3. As to conditions: BJ-TERT/LT/ST/RAS^V12 cells. As to the method:
BJ-TERT/LT/ST/RAS^V12 cells were seeded prior to the experiment at 5×10^5 cells in 60 mm dishes. The cells were treated with 5 μg/ml erastin (9 μM) for 2, 4, 6, 8 or 10 hours. One dish was maintained for camptothecin treatment (0.4 μg/ml for 24 h) as a positive control. Cells were lysed after each time point in lysis buffer (50 mM HEPES KOH pH […] NaCl, 2 mM EDTA, 0.5% Triton X-100, 1.5 mM Na3VO4, 50 mM NaF, 10 mM sodium pyrophosphate, 10 mM sodium beta-glycerophosphate and protease inhibitor tablet (Roche)). Protein content was quantified using a Biorad protein assay reagent. Equal amounts of protein were resolved on 16% SDS-polyacrylamide gel. The electrophoresed proteins were transblotted onto a PVDF membrane, blocked with 5% milk and incubated with anti-active caspase-3 polyclonal antibody (BD Pharmingen) at 1:1500 dilution overnight at 4° C. The membrane was then incubated in anti-rabbit-HRP (Santa Cruz Biotechnology) at 1:3000 dilution for 1 hour and developed with an enhanced chemiluminescence mixture (NEN life science, Renaissance). To test for equivalent loading in each lane, blots were stripped, blocked, and probed with an anti-eIF-4E antibody (BD Transduction laboratories) at 1:1000 dilution.
Background: Immunoblotting shows a protein as a band on a membrane.

Assay [5] concerns BJ-TERT/LT/ST/RAS^V12 cells. The experiment in a line: Nuclear morphology assay. As to conditions: 18 hours. The text has this: Applicants sought to characterize the type of cell death induced by CPT and erastin in tumorigenic BJ-TERT/LT/ST/RAS^V12 cells. […] To determine whether erastin or CPT induces apoptosis in their system, Applicants monitored the nuclear morphology of CPT- and erastin-treated tumorigenic cells using fluorescence microscopy. […] Since nuclear morphological change is required of apoptotic cells, Applicants conclude that cell death induced by erastin is non-apoptotic. […] Additionally, nuclei remained intact in erastin-treated tumor cells (FIG. 9).
200,000 tumorigenic BJ-TERT/LT/ST/RAS^V12 cells were seeded in 2 mL on glass coverslips in each well of a six-well dish, treated with nothing (NT), 9 μM erastin or 1.1 μM camptothecin (CPT) in growth medium for 18 hours while incubating at 37° C. with 5% CO2. Nuclei were stained with 25 μg/mL Hoechst 33342 (Molecular Probes) and viewed using an oil immersion 100× objective on a fluorescence microscope.

`CC[C@@]1(O)C(=O)OCc2c1cc1n(c2=O)Cc2cc3ccccc3nc2-1` [Camptothecin]: in assay [1], the “cell death blocked by pan-caspase inhibitor” value was “partially blocked”. For the same molecule, the “percentage of cells in the M1 region (Annexin V staining)” value in assay [2] (camptothecin-treated (1 μM)) turned out to be 38%. Besides, in assay [3], the “DNA fragmentation (formation of a DNA ladder)” value is “induces DNA fragmentation”. Besides, the “activated caspase 3 (western blot)” value in assay [4] is “harbor activated caspase 3”. The “fragmented nuclei, % of total nuclei” value in assay [5] (1.1 μM camptothecin) is recorded as 10-20%. Besides, in assay [5] (9 μM erastin or 1.1 μM CPT), the “nuclear morphology (karyorhexis and margination of chromatin)” value is “karyorhexis and margination of chromatin were clearly visible”.

Regarding `CCOc1ccccc1-n1c(C(C)N2CCN(C(=O)COc3ccc(Cl)cc3)CC2)nc2ccccc2c1=O` (stereo not shown) [Erastin], in assay [2] (erastin-treated (9 μM)), the “percentage of cells in the M1 region (Annexin V staining)” value is given as 6%.
